SMILES strings stand for the structures. Where only a bound is given, the exact number is not on record here.

The target of the assay is T1, G1 APOL1 (Homo sapiens, UniProt O14791, I384M/S342G).
T1 construct: expressed in transfected cells
T1 sequence (O14791 28-398 S342G/I384M): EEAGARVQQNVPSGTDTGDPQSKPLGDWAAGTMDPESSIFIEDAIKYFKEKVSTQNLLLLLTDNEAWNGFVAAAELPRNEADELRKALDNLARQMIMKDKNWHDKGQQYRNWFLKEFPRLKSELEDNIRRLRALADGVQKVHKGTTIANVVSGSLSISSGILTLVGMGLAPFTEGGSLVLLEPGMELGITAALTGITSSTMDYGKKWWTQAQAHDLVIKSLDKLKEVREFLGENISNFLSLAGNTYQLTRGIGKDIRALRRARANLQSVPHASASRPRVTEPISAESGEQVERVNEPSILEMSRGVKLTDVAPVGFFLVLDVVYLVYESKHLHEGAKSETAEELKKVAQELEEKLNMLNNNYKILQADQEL
Description: Acute APOL1 Thallium Assay with inducible stable clones of HEK 293 cells. Format: cell-based. Conditions: HEK T-Rex tetracycline-inducible cells expressing G1 APOL1 (clone G1 DC3.25); inhibition of thallium flux rate. The method in brief: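 HEK293 T-Rex cells with tetracycline-inducible G1 APOL1 (clone DC3.25), 26000 cells per well, induced with tetracycline at plating and incubated at 37° C, 5% CO2. Pore activity read on FLIPR as Tl+ influx via fluorescence of AM-ester-loaded thallium-sensitive dye.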
The term IC50 denotes the concentration at which inhibition is half-maximal. Low values mean greater potency in that assay, high ones weaker potency in that assay. Compound `O=C(CCc1c(-c2ccccc2)[nH]c2c(F)c(F)c(F)cc12)N[C@@H]1C(=O)NC[C@H]1O` [Compound 80] had an IC50 of less than 250 nM.
Next, `O=C(CCc1c(-c2ccccc2)[nH]c2cc(F)c(F)cc12)N[C@@H]1C(=O)NC[C@H]1O` [Compound 82]: less than 250 nM; `O=C(CCc1c(-c2ccccc2)[nH]c2cc(F)cc(F)c12)N[C@@H]1C(=O)NC[C@H]1O` [Compound 85]: less than 250 nM; `O=C(CCc1c(-c2ccccc2)[nH]c2ccccc12)N[C@@H]1C(=O)NC[C@H]1O` [Compound 86]: less than 250 nM.
The value for `O=C(CCc1c(-c2ccc(F)cc2)[nH]c2ccccc12)N[C@@H]1C(=O)NC[C@H]1O` [Compound 87, 3-[2-(4-fluorophenyl)-1H-indol-3-yl]-N-[(3S,4R)-4-hydroxy-2-oxo-pyrrolidin-3-yl]propanamide] was less than 250 nM.
The value for `O=C1NC[C@@H](O)[C@@H]1NC(=O)C(F)(F)Cc1c(-c2ccc(F)cc2)[nH]c2c(F)cc(F)cc12` [Compound 95, 3-[5,7-difluoro-2-(4-fluorophenyl)-1H-indol-3-yl]-2,2-difluoro-N-[(3S,4R)-4-hydroxy-2-oxo-pyrrolidin-3-yl]propanamide] was less than 250 nM; that for `Cc1c(F)c(F)cc2c(CCC(=O)N[C@@H]3C(=O)NC[C@H]3O)c(-c3ccc(F)cc3)[nH]c12` [Compound 98, 3-[5,6-difluoro-2-(4-fluorophenyl)-7-methyl-1H-indol-3-yl]-N-[(3S,4R)-4-hydroxy-2-oxo-pyrrolidin-3-yl]propanamide] was less than 250 nM.
In turn, `Cc1c(F)c(F)cc2c(CCC(=O)N[C@@H]3C(=O)NC[C@H]3O)c(-c3ccccc3)[nH]c12` [Compound 99, 3-(5,6-difluoro-7-methyl-2-phenyl-1H-indol-3-yl)-N-[(3S,4R)-4-hydroxy-2-oxo-pyrrolidin-3-yl]propanamide] had an IC50 of less than 250 nM.
The value for `O=C(CCc1c(-c2ccc(F)cc2)[nH]c2c(F)cc(C(F)(F)F)cc12)N[C@@H]1C(=O)NC[C@H]1O` [Compound 101, 3-[7-fluoro-2-(4-fluorophenyl)-5-(trifluoromethyl)-1H-indol-3-yl]-N-[(3S,4R)-4-hydroxy-2-oxo-pyrrolidin-3-yl]propanamide] was less than 250 nM; that for `O=C(CCc1c(-c2ccc(OC(F)F)cc2)[nH]c2c(F)cc(F)cc12)N[C@@H]1C(=O)NC[C@H]1O` [Compound 102] was less than 250 nM; that for `O=C(CCc1c(-c2cccc(F)c2)[nH]c2c(F)cc(F)cc12)N[C@@H]1C(=O)NC[C@H]1O` [Compound 103] was less than 250 nM.
Next, `O=C(CCc1c(-c2cc(F)cc(F)c2)[nH]c2c(F)cc(F)cc12)N[C@@H]1C(=O)NC[C@H]1O` [Compound 104]: less than 250 nM.
Next, `O=C(CCc1c(-c2ccc(F)c(F)c2)[nH]c2c(F)cc(F)cc12)N[C@@H]1C(=O)NC[C@H]1O` [Compound 105]: less than 250 nM; `O=C(CCc1c(-c2ccc(F)cc2)[nH]c2c(OC(F)F)cc(F)cc12)N[C@@H]1C(=O)NC[C@H]1O` [Compound 107]: less than 250 nM.
For `O=C(CCc1c(-c2ccc(F)cc2)[nH]c2ccc(C(F)(F)F)cc12)N[C@@H]1C(=O)NC[C@H]1O` [Compound 108, 3-[2-(4-fluorophenyl)-5-(trifluoromethyl)-1H-indol-3-yl]-N-[(3S,4R)-4-hydroxy-2-oxo-pyrrolidin-3-yl]propanamide], the IC50 was less than 250 nM.
Next, `O=C(CCc1c(-c2ccccc2)[nH]c2cc(F)ccc12)N[C@@H]1C(=O)NC[C@H]1O` [Compound 109, 3-(6-fluoro-2-phenyl-1H-indol-3-yl)-N-[(3S,4R)-4-hydroxy-2-oxo-pyrrolidin-3-yl]propanamide]: less than 250 nM.
The value for `O=C(CCc1c(-c2ccccc2)[nH]c2c(C(F)(F)F)cccc12)N[C@@H]1C(=O)NC[C@H]1O` [Compound 112, N-[(3S,4R)-4-hydroxy-2-oxo-pyrrolidin-3-yl]-3-[2-phenyl-7-(trifluoromethyl)-1H-indol-3-yl]propanamide] was 250 to 1000 nM; that for `O=C(CCc1c(-c2ccccc2)[nH]c2cccc(F)c12)N[C@@H]1C(=O)NC[C@H]1O` [Compound 114, 3-(4-fluoro-2-phenyl-1H-indol-3-yl)-N-[(3S,4R)-4-hydroxy-2-oxo-pyrrolidin-3-yl]propanamide] was less than 250 nM.
`N#Cc1ccc(-c2[nH]c3ccccc3c2CCC(=O)N[C@@H]2C(=O)NC[C@H]2O)cc1` [Compound 116, 3-[2-(4-cyanophenyl)-1H-indol-3-yl]-N-[(3S,4R)-4-hydroxy-2-oxo-pyrrolidin-3-yl]propanamide]: the IC50 was less than 250 nM.
Next, `O=C(CCc1c(-c2ccc(OC(F)(F)F)cc2)[nH]c2ccccc12)N[C@@H]1C(=O)NC[C@H]1O` [Compound 118]: less than 250 nM.
The value for `O=C(CCc1c(-c2ccc(Cl)c(F)c2)[nH]c2ccccc12)N[C@@H]1C(=O)NC[C@H]1O` [Compound 120] was less than 250 nM.
The value for `COc1ccc(-c2[nH]c3ccccc3c2CCC(=O)N[C@@H]2C(=O)NC[C@H]2O)cc1` [Compound 121] was less than 250 nM; that for `Cc1ccc(-c2[nH]c3ccccc3c2CCC(=O)N[C@@H]2C(=O)NC[C@H]2O)c(F)c1` [Compound 122] was less than 250 nM.
As for `O=C(CCc1c(-c2ccc(C(F)(F)F)cc2)[nH]c2ccccc12)N[C@@H]1C(=O)NC[C@H]1O` [Compound 123], the half-inhibitory concentration (IC50) was less than 250 nM.
Next, `Cc1ccc(-c2[nH]c3ccccc3c2CCC(=O)N[C@@H]2C(=O)NC[C@H]2O)cc1` [Compound 124]: less than 250 nM; `Cc1cc(-c2[nH]c3ccccc3c2CCC(=O)N[C@@H]2C(=O)NC[C@H]2O)ccc1F` [Compound 125]: less than 250 nM; `Cc1ccc(-c2[nH]c3ccccc3c2CCC(=O)N[C@@H]2C(=O)NC[C@H]2O)cc1F` [Compound 126]: less than 250 nM.
Next, `O=C(CCc1c(-c2cc(F)cc(F)c2)[nH]c2ccccc12)N[C@@H]1C(=O)NC[C@H]1O` [Compound 127, 3-[2-(3,5-difluorophenyl)-1H-indol-3-yl]-N-[(3S,4R)-4-hydroxy-2-oxo-pyrrolidin-3-yl]propanamide]: 250 to 1000 nM; `O=C(CCc1c(-c2ccc(Cl)cc2)[nH]c2ccccc12)N[C@@H]1C(=O)NC[C@H]1O` [Compound 128, 3-[2-(4-chlorophenyl)-1H-indol-3-yl]-N-[(3S,4R)-4-hydroxy-2-oxo-pyrrolidin-3-yl]propanamide]: less than 250 nM; `O=C(CCc1c(-c2ccc(F)c(F)c2)[nH]c2ccccc12)N[C@@H]1C(=O)NC[C@H]1O` [Compound 129, 3-[2-(3,4-difluorophenyl)-1H-indol-3-yl]-N-[(3S,4R)-4-hydroxy-2-oxo-pyrrolidin-3-yl]propanamide]: less than 250 nM.
Next, `O=C(CCc1c(-c2ccc(C(F)F)cc2)[nH]c2ccccc12)N[C@@H]1C(=O)NC[C@H]1O` [Compound 131, 3-[2-[4-(difluoromethyl)phenyl]-1H-indol-3-yl]-N-[(3S,4R)-4-hydroxy-2-oxo-pyrrolidin-3-yl]propanamide]: less than 250 nM.

(Values after patent US11618746B2, “Inhibitors of APOL1 and methods of using same” (Vertex Pharmaceuticals Incorporated, priority 2018, dated 2023).)
